{"source": "PubChem BioAssay AID493139", "about": "(Sanford-Burnham Center for Chemical Genomics, 2011)", "note": "Values joined by “and” are separate entries in the source; they are usually repeats but may differ in a detail not shown here. Equal entries are not always repeated. Active and inactive are the calls of the source. The rule behind the calls is not given here.", "data": [{"target": "Alkaline phosphatase, germ cell type (Homo sapiens) (UniProt P10696)", "sequence (P10696 whole entry, looked up)": "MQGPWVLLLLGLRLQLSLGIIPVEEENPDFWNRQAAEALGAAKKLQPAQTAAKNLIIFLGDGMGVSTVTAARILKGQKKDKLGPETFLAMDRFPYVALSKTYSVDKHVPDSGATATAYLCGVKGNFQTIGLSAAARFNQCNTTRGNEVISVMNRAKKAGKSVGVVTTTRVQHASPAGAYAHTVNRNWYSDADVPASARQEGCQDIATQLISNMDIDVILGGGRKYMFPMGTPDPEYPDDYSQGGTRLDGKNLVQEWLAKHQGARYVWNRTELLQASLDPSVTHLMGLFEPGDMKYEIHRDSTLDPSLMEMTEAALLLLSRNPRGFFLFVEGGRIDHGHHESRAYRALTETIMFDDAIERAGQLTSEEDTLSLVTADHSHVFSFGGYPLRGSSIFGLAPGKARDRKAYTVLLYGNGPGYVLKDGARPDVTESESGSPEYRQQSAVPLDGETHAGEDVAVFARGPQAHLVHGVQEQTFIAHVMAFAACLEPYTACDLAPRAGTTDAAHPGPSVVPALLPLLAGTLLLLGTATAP", "experiment": "effect of analogs on PLAP-like activity, SAR follow-up, selectivity assay for mouse IAP activator project, biochemical, human placental-like ALPPL2 isozyme (AID 493139)", "settings": "purified human placental-like alkaline phosphatase, enzymatic activity", "values": [{"smiles": "CC(C(=O)Nc1cccc(C(=O)O)c1)N1C(=O)/C(=C\\c2ccco2)SC1=S", "note": "(stereo not drawn)", "IC50 (inhibition of PLAP activity)": "> 100 µM (inactive)"}, {"smiles": "N#Cc1c(SCC(=O)Nc2nccs2)sc2c(O)cc(=O)[nH]c12", "IC50 (inhibition of PLAP activity)": "> 100 µM (inactive)"}, {"smiles": "COc1cccc(/C=N/NC(=O)c2cc(O)c(O)c(O)c2)c1", "IC50 (inhibition of PLAP activity)": "> 100 µM (inactive)"}, {"smiles": "COc1cc(C(=O)NNC(=O)C2CC2)cc(OC)c1OC", "IC50 (inhibition of PLAP activity)": "> 100 µM (inactive)"}, {"smiles": "Cc1ccc(NC(=O)CSc2sc3c(O)cc(=O)[nH]c3c2C#N)c(F)c1", "IC50 (inhibition of PLAP activity)": "> 100 µM (inactive)"}, {"smiles": "CC(C(=O)NCCc1ccc(O)cc1)N1C(=O)/C(=C/c2ccco2)SC1=S", "note": "(stereo not drawn)", "IC50 (inhibition of PLAP activity)": "> 100 µM (inactive)"}, {"smiles": "Cc1ccc(NC(=O)CCNS(=O)(=O)c2ccc3[nH]c(=O)oc3c2)cc1F", "IC50 (inhibition of PLAP activity)": "> 100 µM (inactive)"}, {"smiles": "CCOc1cccc(NC(=O)CSc2sc3c(O)cc(=O)[nH]c3c2C#N)c1", "IC50 (inhibition of PLAP activity)": "> 100 µM (inactive)"}, {"smiles": "O=C(c1ccco1)N1CCN(S(=O)(=O)c2ccc3[nH]c(=O)oc3c2)CC1", "IC50 (inhibition of PLAP activity)": "> 100 µM (inactive)"}, {"smiles": "O=C(CN1C(=O)/C(=C/c2ccco2)SC1=S)N[C@@H]1CSC[C@@H]1O", "IC50 (inhibition of PLAP activity)": "> 100 µM (inactive)"}, {"smiles": "CN(C(=O)CN1C(=O)/C(=C\\c2ccco2)SC1=S)C1CCS(=O)(=O)C1", "note": "(stereo not drawn)", "IC50 (inhibition of PLAP activity)": "> 100 µM (inactive)"}, {"smiles": "COc1ccc(Cl)cc1NC(=O)CSc1sc2c(O)cc(=O)[nH]c2c1C#N", "IC50 (inhibition of PLAP activity)": "> 100 µM (inactive)"}, {"smiles": "COc1ccc(NC(=O)CCNS(=O)(=O)c2ccc3[nH]c(=O)oc3c2)cc1Cl", "IC50 (inhibition of PLAP activity)": "> 100 µM (inactive)"}, {"smiles": "COc1cc(C(=O)NNC(=S)NC(=O)c2ccc(Cl)cc2)cc(OC)c1OC", "IC50 (inhibition of PLAP activity)": "22 µM"}, {"smiles": "O=S(=O)(Nc1ncccn1)c1ccc(NC(=S)NCCC(c2ccccc2)c2ccccc2)cc1", "IC50 (inhibition of PLAP activity)": "> 100 µM (inactive)"}, {"smiles": "COc1ccc(OC)c(NC(=O)CSc2sc3c(O)cc(=O)[nH]c3c2C#N)c1", "IC50 (inhibition of PLAP activity)": "> 100 µM (inactive)"}, {"smiles": "O=C(N/N=C/C1CC2CCC1C2)c1cc(O)c(O)c(O)c1", "note": "(stereo not drawn)", "IC50 (inhibition of PLAP activity)": "> 100 µM (inactive)"}, {"smiles": "Cc1ccc(NC(=O)CCNS(=O)(=O)c2ccc3[nH]c(=O)oc3c2)cc1N(C)C", "IC50 (inhibition of PLAP activity)": "> 100 µM (inactive)"}, {"smiles": "CCc1ccc(NC(=O)CN(C)S(=O)(=O)c2ccc3[nH]c(=O)oc3c2)cc1", "IC50 (inhibition of PLAP activity)": "> 100 µM (inactive)"}, {"smiles": "Cc1ccc(/C=C2\\SC(=S)N(C3CCS(=O)(=O)C3)C2=O)o1", "note": "(stereo not drawn)", "IC50 (inhibition of PLAP activity)": "> 100 µM (inactive)"}, {"smiles": "CC(C)C(C(=O)NC1CCS(=O)(=O)C1)N1C(=O)/C(=C\\c2ccco2)SC1=S", "note": "(stereo not drawn)", "IC50 (inhibition of PLAP activity)": "> 100 µM (inactive)"}, {"smiles": "COc1ccc(CNC(=O)CSc2sc3c(O)cc(=O)[nH]c3c2C#N)cc1OC", "IC50 (inhibition of PLAP activity)": "> 100 µM (inactive)"}, {"smiles": "O=C(N/N=C/c1ccco1)c1cc(O)c(O)c(O)c1", "IC50 (inhibition of PLAP activity)": "> 100 µM (inactive)"}, {"smiles": "O=C(NNC(=O)c1cc(O)c(O)c(O)c1)NC1CCCCC1", "IC50 (inhibition of PLAP activity)": "53.5 µM"}, {"smiles": "O=C(CCN1C(=O)/C(=C/c2ccco2)SC1=S)Nc1ccc(O)cc1C(=O)O", "IC50 (inhibition of PLAP activity)": "> 100 µM (inactive)"}, {"smiles": "CC(C)N1CCC(=NNC(=O)c2cc(O)c(O)c(O)c2)CC1", "IC50 (inhibition of PLAP activity)": "> 100 µM (inactive) and 61.4 µM"}, {"smiles": "CC(C)c1ccc(NC(=O)CCNS(=O)(=O)c2ccc3[nH]c(=O)oc3c2)cc1", "IC50 (inhibition of PLAP activity)": "> 100 µM (inactive)"}, {"smiles": "Cc1csc(NC(=O)CSc2sc3c(O)cc(=O)[nH]c3c2C#N)n1", "IC50 (inhibition of PLAP activity)": "> 100 µM (inactive)"}, {"smiles": "CN1CCC(=NNC(=O)c2cc(O)c(O)c(O)c2)CC1", "IC50 (inhibition of PLAP activity)": "> 100 µM (inactive)"}, {"smiles": "CCOc1ccccc1NC(=O)CCNS(=O)(=O)c1ccc2[nH]c(=O)oc2c1", "IC50 (inhibition of PLAP activity)": "> 100 µM (inactive)"}, {"smiles": "CCN(C(=O)CN1C(=O)/C(=C\\c2ccco2)SC1=S)C1CCS(=O)(=O)C1", "note": "(stereo not drawn)", "IC50 (inhibition of PLAP activity)": "> 100 µM (inactive)"}, {"smiles": "O=C(CN1C(=O)/C(=C/c2ccco2)SC1=S)Nc1ccc(C(=O)O)cc1", "IC50 (inhibition of PLAP activity)": "> 100 µM (inactive)"}, {"smiles": "CCOC(=O)N1CCC(NC(=O)CSc2sc3c(O)cc(=O)[nH]c3c2C#N)CC1", "IC50 (inhibition of PLAP activity)": "> 100 µM (inactive)"}]}]}
